23 compounds from patent US11046680B1, “Heteroaryl-substituted triazoles as APJ receptor agonists” (priority 2016, dated 2021) can be followed below.

Chain of human APJ receptor (P35414 whole entry): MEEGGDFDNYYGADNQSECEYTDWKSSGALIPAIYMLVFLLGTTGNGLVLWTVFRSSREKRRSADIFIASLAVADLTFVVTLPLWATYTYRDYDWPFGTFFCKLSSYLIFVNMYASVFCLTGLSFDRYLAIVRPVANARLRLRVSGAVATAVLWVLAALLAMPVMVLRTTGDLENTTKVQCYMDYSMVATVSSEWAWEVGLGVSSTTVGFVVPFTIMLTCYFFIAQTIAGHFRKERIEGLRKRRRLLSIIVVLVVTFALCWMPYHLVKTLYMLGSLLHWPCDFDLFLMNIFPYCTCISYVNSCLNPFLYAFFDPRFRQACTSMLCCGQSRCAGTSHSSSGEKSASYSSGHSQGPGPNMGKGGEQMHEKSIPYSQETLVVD

This assay has as its target human APJ receptor (Homo sapiens (Human), UniProt P35414). Nature of the assay: biochemical. Type of assay: biochemical. Particulars: [35S]GTPγS binding, CHO membranes expressing human APJ receptor; read-out: Activity hAPJ SPA EC50 IP. The gist of the method: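 GTPγS binding on membranes from CHO cells stably expressing FLAG-tagged human APJ, with optimized GDP, MgCl2 and NaCl; incubated 90 min at RT before imaging read-out.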
As to `COc1ccc([C@@H](OC)[C@H](C)S(=O)(=O)Nc2nnc(-c3ccn(C)n3)n2-c2c(OC)ncnc2OC)nc1` [Example 455.0, (1R,2S)-N-(4-(4,6-dimethoxy-5-pyrimidinyl)-5-(1-methyl-1H-pyrazol-3-yl)-4H-1,2,4-triazol-3-yl)-1-methoxy-1-(5-methoxy-2-pyridinyl)-2-propanesulfonamide], the EC50 was 5.7 nM.
Then `Cn1ccc(-c2nnc(NS(=O)(=O)[C@@H]3C[C@H](O)CN(c4ncc(F)cn4)C3)n2-c2c(F)cccc2F)n1` (single isomer, unassigned) [Example 299.0, (3R,5S)-N-(4-(2,6-difluorophenyl)-5-(1-methyl-1H-pyrazol-3-yl)-4H-1,2,4-triazol-3-yl)-1-(5-fluoro-2-pyrimidinyl)-5-hydroxy-3-piperidinesulfonamide or (3S,5R)-N-(4-(2,6-difluorophenyl)-5-(1-methyl-1H-pyrazol-3-yl)-4H-1,2,4-triazol-3-yl)-1-(5-fluoro-2-pyrimidinyl)-5-hydroxy-3-piperidinesulfonamide], with 520 nM; and `COc1cccc(OC)c1-n1c(NS(=O)(=O)[C@@H](C)[C@H](OC)c2ncc(C)cn2)nnc1-c1nn(C)c2ccccc12` [Example 436.0, (1R,2S)-N-(4-(2,6-dimethoxyphenyl)-5-(1-methyl-1H-indazol-3-yl)-4H-1,2,4-triazol-3-yl)-1-methoxy-1-(5-methylpyrimidin-2-yl)propane-2-sulfonamide], with 0.81 nM.
`CO[C@H]1CCC[C@@H](OC)C1n1c(NS(=O)(=O)[C@@H](C)[C@H](C)c2ncc(Cl)cn2)nnc1-c1cnn2ccccc12` (stereo partly drawn) [Example 442.0, (2S,3R)-3-(5-chloropyrimidin-2-yl)-N-(4-((1r,2R,6S)-2,6-dimethoxycyclohexyl)-5-(pyrazolo[1,5-a]pyridin-3-yl)-4H-1,2,4-triazol-3-yl)butane-2-sulfonamide]: the EC50 came to 190 nM.
In the case of `Cc1cnc([C@@H](C)[C@H](C)S(=O)(=O)Nc2nnc(-c3ccn(C)n3)n2-c2c(F)cccc2F)cn1` [Example 231.0, (2S,3R)-N-(4-(2,6-difluorophenyl)-5-(1-methyl-1H-pyrazol-3-yl)-4H-1,2,4-triazol-3-yl)-3-(5-methyl-2-pyrazinyl)-2-butanesulfonamide], the EC50 was determined as 46 nM.
In the case of `COc1cccc(OC)c1-n1c(NS(=O)(=O)C[C@@H](O)c2ccc(F)cc2F)nnc1-c1ccn(C)n1` (racemic) [Example 116.0, (S)-2-(2,4-difluorophenyl)-N-(4-(2,6-dimethoxyphenyl)-5-(1-methyl-1H-pyrazol-3-yl)-4H-1,2,4-triazol-3-yl)-2-hydroxyethanesulfonamide and (R)-2-(2,4-difluorophenyl)-N-(4-(2,6-dimethoxyphenyl)-5-(1-methyl-1H-pyrazol-3-yl)-4H-1,2,4-triazol-3-yl)-2-hydroxyethanesulfonamide], the EC50 amounted to 2.6 nM.
`COc1cccc(OC)c1-n1c(NS(=O)(=O)[C@H](C)Cc2ncc(F)cn2)nnc1-c1nc(C(C)C)cs1` (single isomer, unassigned) [Example 157.0, (R)-N-(4-(2,6-dimethoxyphenyl)-5-(4-isopropylthiazol-2-yl)-4H-1,2,4-triazol-3-yl)-1-(5-fluoropyrimidin-2-yl)propane-2-sulfonamide or (S)-N-(4-(2,6-dimethoxyphenyl)-5-(4-isopropylthiazol-2-yl)-4H-1,2,4-triazol-3-yl)-1-(5-fluoropyrimidin-2-yl)propane-2-sulfonamide]: the EC50 was found to be 58 nM.
Regarding `COc1cccc(OC)c1-n1c(NS(=O)(=O)C[C@H](O)c2ccc(F)cc2S(C)(=O)=O)nnc1-c1ccn(C)n1` (single isomer, unassigned) [Example 371.0, (R)-N-(4-(2,6-Dimethoxyphenyl)-5-(1-methyl-1H-pyrazol-3-yl)-4H-1,2,4-triazol-3-yl)-2-(4-fluoro-2-(methylsulfonyl)phenyl)-2-hydroxyethanesulfonamide or (S)-N-(4-(2,6-dimethoxyphenyl)-5-(1-methyl-1H-pyrazol-3-yl)-4H-1,2,4-triazol-3-yl)-2-(4-fluoro-2-(methylsulfonyl)phenyl)-2-hydroxyethanesulfonamide], the EC50 was 2.2 nM.
Then `COc1cccc(OC)c1-n1c(NS(=O)(=O)[C@H](C)Cc2ncc(F)cn2)nnc1-c1nc(C2CC2)cs1` (single isomer, unassigned) [Example 159.0, (R)-N-(5-(4-cyclopropylthiazol-2-yl)-4-(2,6-dimethoxyphenyl)-4H-1,2,4-triazol-3-yl)-1-(5-fluoropyrimidin-2-yl)propane-2-sulfonamide or (S)-N-(5-(4-cyclopropylthiazol-2-yl)-4-(2,6-dimethoxyphenyl)-4H-1,2,4-triazol-3-yl)-1-(5-fluoropyrimidin-2-yl)propane-2-sulfonamide], with 0.61 nM; and `Cc1cnc([C@H](OC(C)C)[C@H](C)S(=O)(=O)Nc2nnc(-c3cnn4c3CCC4)n2-c2c(F)cccc2F)cn1` [Example 484.0, (1S,2S)-N-(4-(2,6-difluorophenyl)-5-(5,6-dihydro-4H-pyrrolo[1,2-b]pyrazol-3-yl)-4H-1,2,4-triazol-3-yl)-1-isopropoxy-1-(5-methylpyrazin-2-yl)propane-2-sulfonamide], with 9.2 nM.
As to `COCC(COC)n1c(NS(=O)(=O)[C@@H](C)[C@H](C)c2ncc(Cl)cn2)nnc1-c1nn(C)c2ccc(C)cc12` [Example 448.0, (2S,3R)-3-(5-chloropyrimidin-2-yl)-N-(4-(1,3-dimethoxypropan-2-yl)-5-(1,5-dimethyl-1H-indazol-3-yl)-4H-1,2,4-triazol-3-yl)butane-2-sulfonamide], the EC50 stood at 10 nM.
`COCC1(n2c(NS(=O)(=O)[C@@H](C)[C@H](OC)c3ncc(Cl)cn3)nnc2-c2nn(C)c3c2CCCC3)CCC1` [Example 518.0]: the concentration giving a half-maximal response (EC50) was 92 nM.
Regarding `COc1cccc(OC)c1-n1c(NS(=O)(=O)[C@@H](C)[C@H](C)c2cnc(C)cn2)nnc1-c1ccn(C)n1` [Example 306.0, (2S,3R)-N-(4-(2,6-dimethoxyphenyl)-5-(1-methyl-1H-pyrazol-3-yl)-4H-1,2,4-triazol-3-yl)-3-(5-methyl-2-pyrazinyl)-2-butanesulfonamide], the EC50 came to 2.5 nM.
Then `COc1cccc(OC)c1-n1c(NS(=O)(=O)[C@H](C)[C@@H](C)c2ncc(Cl)cn2)nnc1-c1n[nH]c2ccccc12` [Example 430.0], with 2.8 nM; and “(1R,2S)-N-(4-(2,6-dimethoxyphenyl)-5-(1-methyl-1H-pyrazol-3-yl)-4H-1,2,4-triazol-3-yl)-1-methoxy-1-(5-methoxy-2-pyrazinyl)-2-propanesulfonamide and (1S,2R)-N-(4-(2,6-dimethoxyphenyl)-5-(1-methyl-1H-pyrazol-3-yl)-4H-1,2,4-triazol-3-yl)-1-methoxy-1-(5-methoxy-2-pyrazinyl)-2-propanesulfonamide [Example 307.0]”, with 1 nM; and `COc1ccc(N2CCC2=O)cc1-n1c(NS(=O)(=O)CCc2ccc(F)cc2C#N)nnc1-c1cccs1` [Example 132.0, 2-(2-Cyano-4-fluorophenyl)-N-(4-(2-methoxy-5-(2-oxoazetidin-1-yl)phenyl)-5-(thiophen-2-yl)-4H-1,2,4-triazol-3-yl)ethanesulfonamide], with 0.24 nM.
In the case of `COc1cccc(OC)c1-n1c(NS(=O)(=O)[C@@H]2CCCN(c3ncc(F)cn3)C2)nnc1-c1ccn(C)n1` (single isomer, unassigned) [Example 261.0, (3R)-N-(4-(2,6-dimethoxyphenyl)-5-(1-methyl-1H-pyrazol-3-yl)-4H-1,2,4-triazol-3-yl)-1-(5-fluoro-2-pyrimidinyl)-3-piperidinesulfonamide or (3S)-N-(4-(2,6-dimethoxyphenyl)-5-(1-methyl-1H-pyrazol-3-yl)-4H-1,2,4-triazol-3-yl)-1-(5-fluoro-2-pyrimidinyl)-3-piperidinesulfonamide] it was 190 nM; in that of `COc1cccc(OC)c1-n1c(NS(=O)(=O)[C@@H](C)[C@H](OC)c2ncc(C)cn2)nnc1-c1cc(C2CC2)on1` [Example 424.0, (1R,25)-N-(5-(5-cyclopropylisoxazol-3-yl)-4-(2,6-dimethoxyphenyl)-4H-1,2,4-triazol-3-yl)-1-methoxy-1-(5-methylpyrimidin-2-yl)propane-2-sulfonamide], 21 nM; in that of “(R)-N-(4-(2,6-dimethoxyphenyl)-5-(pyrimidin-2-yl)-4H-1,2,4-triazol-3-yl)-1-(5-fluoropyrimidin-2-yl)propane-2-sulfonamide and (S)-N-(4-(2,6-dimethoxyphenyl)-5-(pyrimidin-2-yl)-4H-1,2,4-triazol-3-yl)-1-(5-fluoropyrimidin-2-yl)propane-2-sulfonamide [Example 56.0]”, 74 nM.
In the case of `COc1cccc(OC)c1-n1c(NS(=O)(=O)[C@@H](C)[C@H](C)c2ncc(C#N)cn2)nnc1-c1cc2n(n1)CCC2` [Example 225.0] it was 2 nM; in that of `COCC1(n2c(NS(=O)(=O)[C@@H](C)[C@H](OC)c3ncc(Cl)cn3)nnc2-c2n[nH]c3c2CCCC3)CC1` [Example 491.0, (1R,2S)-1-(5-chloropyrimidin-2-yl)-1-methoxy-N-(4-(1-(methoxymethyl)cyclopropyl)-5-(4,5,6,7-tetrahydro-1H-indazol-3-yl)-4H-1,2,4-triazol-3-yl)propane-2-sulfonamide], 15 nM; in that of `COc1cccc(OC)c1-n1c(NS(=O)(=O)[C@@H](C)[C@H](OC)c2ncc(Cl)cn2)nnc1-c1cnn2ccccc12` [Example 423.0, (1R,2S)-1-(5-chloropyrimidin-2-yl)-N-(4-(2,6-dimethoxyphenyl)-5-(pyrazolo [1,5-a]pyridin-3-yl)-4H-1,2,4-triazol-3-yl)-1-methoxypropane-2-sulfonamide], 0.68 nM.
In the case of `Cc1cnc([C@@H](C)[C@H](C)S(=O)(=O)Nc2nnc(-c3ccn(C)n3)n2-c2c(F)cccc2F)nc1` [Example 226.0, (2S,3R)-N-(4-(2,6-difluorophenyl)-5-(1-methyl-1H-pyrazol-3-yl)-4H-1,2,4-triazol-3-yl)-3-(5-methyl-2-pyrimidinyl)-2-butanesulfonamide], the EC50 is 11 nM.
